This is an account of results in US12201633B2, “Compounds and methods for treatment of visceral pain” (Arena Pharmaceuticals, Inc., priority 2017, dated 2025).

Usually EC50 stands for the concentration at which the effect is half-maximal. A word on the Ki: it is a measure of affinity in units of concentration, obtained from inhibition or displacement. Low readings indicate a stronger hold on the target, high ones a looser hold on the target.

In assay [1] the test system is male Sprague Dawley rats, paclitaxel-induced allodynia. As to the kind of experiment: Paclitaxel-induced allodynia. In kind it is in vivo, rat. The note with it: 10 mg/kg orally, FIG. 3. On the procedure:
Animals: Male Sprague Dawley rats [200-250 g] (Harlan Laboratories Inc., Livermore, CA) were housed three per cage and maintained in a humidity-controlled (40-60%) and temperature-controlled (68-72° F.) facility on a 12 h:12 h light/dark cycle (lights on at 6:30 am) with free access to food (Harlan Teklad, Orange, CA, Rodent Diet 8604) and water. Rats were allowed one week of habituation to the animal facility before starting treatment.
Induction of Allodynia: Rats were treated intraperitoneally, with 2 mg/kg of paclitaxel (Sigma Aldrich, Saint Louis, MO) in 10% Cremophor vehicle (500 μL) on days 0, 2, 4, and 6.
Clinical scoring: Tactile allodynia was tested using von Frey filaments. Briefly, the von Frey assay was performed using the standardized up down method with von Frey filaments, that determine the tactile sensitivity of the paw. By applying the increasingly or decreasingly thicker filaments to the paw in a logarithmic scale of actual force, a linear scale of perceived intensity is determined.
Drug treatment: Eight days after the start of paclitaxel dosing, a baseline measurement (von Frey assay) was performed prior to dosing of compounds. […] As a positive control, rats were dosed intraperitoneally with 100 mg/kg gabapentin in water. The dosing volume for oral and peritoneal treatment was 500 μL. […]

The test system of assay [2] is male Sprague Dawley rats, FCA-induced hyperalgesia. As to the kind of experiment: FCA-induced hyperalgesia model of inflammatory pain. In kind it is in vivo, rat. The conditions noted are these: 0.1, 1, 3, 10 and 30 mg/kg orally, 1-hour post dosing, vehicle PEG400; FIG. 1. The procedure:
Animal info: Male Sprague Dawley rats from Harlan (200-225 g when received) were used. Upon arrival, rats were housed 4 per cage in shoe-box polycarbonate cages with wire tops, wood chip bedding and suspended food and water bottles. Animals were acclimated for 5-7 days prior to being injected with Freund's complete adjuvant (FCA) (Sigma; catalog #5881).
Experimental procedure: 2 days (48 h) before testing compounds, baseline readings of all rats were taken right before FCA injection. Rats were then injected with 50 μL FCA containing 1 mg/mL Mtb (Mycobacterium tuberculosis) in right hind footpad under inhalation anesthesia (isoflurane). 48 hours after FCA injection, readings were taken as pre-dosing baseline and then rats were dosed orally with 0.5 mL of vehicle or compound (0.5 mL per 250 g rat). Readings were taken again at 1-hour post dosing. All readings were taken with an Analgesy-Meter (Ugo Basile) which measures mechanical hyperalgesia via paw pressure.
Clinical scoring: FCA-induced hyperalgesia was tested with an Analgesy-Meter. Briefly, the Analgesy Meter applied an increasing pressure to the right hind paw. The paw withdrawal threshold was the pressure leading to withdrawal.
Meanwhile a group of rats were dosed orally with 50 mg/kg of Diclofenac as a positive control. Readings were taken again at 1-hour post dosing. Dosing volume was 500 μL per 250 g rat.

The test system of assay [3] is male Sprague Dawley rats, MIA model of osteoarthritis. The experiment in a line: Monosodium iodoacetate (MIA) model of osteoarthritis pain. In kind it is in vivo, rat. The conditions noted are these: 3, 10 and 30 mg/kg orally, one hour after dosing, vehicle PEG400; FIG. 2. An excerpt: Injection of monosodium iodoacetate (MIA) into a joint (Kalbhen, 1987) inhibits the activity of glyceraldehyde-3-phosphate dehydrogenase in chondrocytes, resulting in disruption of glycolysis and eventually in cell death. The progressive loss of chondrocytes results in histological and morphological changes of the articular cartilage, closely resembling those seen in osteoarthritis patients.
The osteoarthritis was induced in 200 g male Sprague Dawley rats. […]
Typically, during disease progression, there was an inflammation period of 0-7 days post-intra-articular injection followed by progressive degeneration of the cartilage and subchondral bone from days 14-55. […] Tactile allodynia was measured via von Frey assay, hind limb paw weight distribution was monitored using an incapacitence tester (Columbus Instruments, Columbus, OH, USA) and hind limb grip strength was measured using a grip strength meter (Columbus Instruments, Columbus, OH, USA). […] Hind paw weight distribution was determined by placing rats in a chamber so that each hind paw rests on a separate force plate of the incapacitence tester. The force exerted by each hind limb (measured in grams) is averaged over a 3 second period. Three measurements were taken for each rat, and the change in hind paw weight distribution calculated. […]

The target of assay [4] is T1, human CB2 receptor (Homo sapiens, UniProt P34972). As to the kind of experiment: PathHunter β-arrestin assay, CB2.
T1 sequence (P34972 whole entry): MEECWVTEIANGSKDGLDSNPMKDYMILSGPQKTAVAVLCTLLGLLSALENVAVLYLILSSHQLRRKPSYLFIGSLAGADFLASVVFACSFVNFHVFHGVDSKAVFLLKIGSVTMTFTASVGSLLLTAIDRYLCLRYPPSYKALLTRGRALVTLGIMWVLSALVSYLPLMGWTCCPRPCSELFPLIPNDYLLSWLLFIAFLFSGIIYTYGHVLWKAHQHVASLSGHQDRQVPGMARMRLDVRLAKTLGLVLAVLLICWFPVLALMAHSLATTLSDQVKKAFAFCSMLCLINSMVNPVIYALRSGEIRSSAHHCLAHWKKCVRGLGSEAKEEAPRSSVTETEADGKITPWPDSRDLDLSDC
For assay [5], the target named is T2, hCB1 (Homo sapiens, UniProt P21554). The experiment in a line: PathHunter β-arrestin assay, CB1.
T2 sequence (P21554 whole entry): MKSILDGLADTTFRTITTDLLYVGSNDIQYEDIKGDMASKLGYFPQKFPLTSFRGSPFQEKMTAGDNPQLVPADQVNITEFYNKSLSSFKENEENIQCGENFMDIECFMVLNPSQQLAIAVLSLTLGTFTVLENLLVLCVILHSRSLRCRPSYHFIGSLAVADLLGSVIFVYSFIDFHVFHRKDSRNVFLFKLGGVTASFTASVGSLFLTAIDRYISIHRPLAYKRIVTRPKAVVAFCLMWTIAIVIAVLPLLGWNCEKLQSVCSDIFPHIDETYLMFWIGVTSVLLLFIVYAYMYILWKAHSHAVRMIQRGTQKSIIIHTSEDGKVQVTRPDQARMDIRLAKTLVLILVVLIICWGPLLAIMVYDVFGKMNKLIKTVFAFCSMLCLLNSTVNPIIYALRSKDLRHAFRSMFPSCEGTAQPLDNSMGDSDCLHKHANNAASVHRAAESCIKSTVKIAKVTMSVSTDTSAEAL
The target in assay [6] is T1, human CB2 receptor. As to the kind of experiment: HTRF assay for direct cAMP measurement, CB2. In kind it is cell-based. The arrangement: 93-0164 (CHO-K1 EA-Arrestin parental line); host or cells: CHO-K1 EA-Arrestin, clone #61. For orientation: Time-resolved FRET reads energy transfer from a long-lived donor to a nearby acceptor.
The target in assay [7] is T2, hCB1. As to the kind of experiment: HTRF assay for direct cAMP measurement, CB1. In kind it is cell-based. More on the design: 93-0164 (CHO-K1 EA-Arrestin parental line); host or cells: CHO-K1 EA-Arrestin, clone #3.
From the text: Compounds were also screened for agonists and inverse agonists of the CB1 receptor (e.g., human CB1 receptor) using HTRF® assay for direct cAMP measurement (Gabriel et al., ASSAY and Drug Development Technologies, 1:291-303, 2003) in recombinant CHO-K1 cells stably transfected with the CB1 receptor. […] An agonist of the CB1 receptor was detected in the HTRF® assay for direct cAMP measurement as a compound which decreased cAMP concentration. An inverse agonist of the CB1 receptor was detected in the HTRF® assay for direct cAMP measurement as a compound which increased cAMP concentration. The HTRF® assay also was used to determine EC50 values for CB1 receptor agonists and inverse agonists.
Principle of the assay: The HTRF® assay kit was purchased from Cisbio-US, Inc. (Bedford, MA; Catalog #62AM4PEC). The HTRF® assay supported by the kit is a competitive immunoassay between endogenous cAMP produced by the CHO-K1 cells and tracer cAMP labeled with the dye d2. The tracer binding is visualized by a monoclonal anti-cAMP antibody labeled with Cryptate. The specific signal (i.e., fluorescence resonance energy transfer, FRET) is inversely proportional to the concentration of unlabeled cAMP in the standard or sample.
The fluorescence ratio of the samples (test compound or compound buffer) was calculated and used to deduce respective cAMP concentrations by reference to the cAMP standard curve. […]
In assay [8] the test system is rats with TNBS-induced colitis and healthy rats. As to the kind of experiment: Visceral pain model of colitis: visceromotor response to colorectal distension after TNBS. In kind it is in vivo, rat. The procedure: Rats with active colitis display allodynia and hyperalgesia to colorectal distension following the administration of trinitrobenzene sulfonic acid (TNBS).
Abdominal electromyographic (EMG) electrode implantation is followed by measurement of visceromotor response (VMR) at 0, 20, 40, 60, and 80 mmHg of colorectal distention on day 4. The effect of each treatment on colonic compliance is also determined.
Abdominal EMG electrode implantation is followed by measurement of VMR at 0, 20, 40, 60, and 80 mmHg of colorectal distention on day 4. The effect of each treatment on colonic compliance is also determined.

The test system of assay [9] is male Sprague-Dawley rats, STZ-induced PDPN. As to the kind of experiment: Streptozotocin-induced painful diabetic peripheral neuropathy (PDPN) model. It is filed as in vivo, rat. The conditions noted are these: 10 mg/kg orally in 0.5% methylcellulose; 1, 4 and 6 hours post-dosing; FIG. 9, FIG. 10. The procedure:
Male Sprague-Dawley rats were injected intraperitoneally with 50 mg/kg of streptozotocin (STZ) in sodium citrate buffer. 10% sucrose water was provided ad libitum for the first 48 hours post-STZ followed by regular drinking water. Rats were monitored once weekly for blood glucose levels and body weights. Development of tactile allodynia over time was analyzed using Von Frey filaments and a 50% withdrawal threshold was determined using Dixon's up-down procedure. […] Tactile allodynia was evaluated at 1, 4 and 6 hours post-dosing.

Assay [10] has as its target T2, hCB1. As to the kind of experiment: Interaction with recombinant human CB1. The note with it: test concentrations up to 10 μM.
Assay [11] deals with recombinant rat CB1 receptors (Rattus norvegicus, UniProt P20272). The experiment in a line: Interaction with recombinant rat CB1. The note with it: test concentrations up to 10 μM.
recombinant rat CB1 receptors, sequence (P20272 whole entry): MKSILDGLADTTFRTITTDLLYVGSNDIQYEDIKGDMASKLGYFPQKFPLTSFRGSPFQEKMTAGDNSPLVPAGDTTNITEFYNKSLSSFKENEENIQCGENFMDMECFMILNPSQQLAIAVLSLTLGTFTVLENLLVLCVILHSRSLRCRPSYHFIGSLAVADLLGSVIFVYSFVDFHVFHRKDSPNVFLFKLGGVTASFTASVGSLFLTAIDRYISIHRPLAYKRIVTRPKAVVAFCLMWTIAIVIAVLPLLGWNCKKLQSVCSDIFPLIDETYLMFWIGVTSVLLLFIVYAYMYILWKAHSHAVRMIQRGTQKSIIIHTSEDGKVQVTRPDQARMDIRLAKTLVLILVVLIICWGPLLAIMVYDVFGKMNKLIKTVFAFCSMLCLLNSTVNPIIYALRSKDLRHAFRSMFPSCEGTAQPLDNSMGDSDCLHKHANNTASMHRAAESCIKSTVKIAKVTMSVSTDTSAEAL
Assay [12] deals with recombinant dog CB1 receptors. The experiment in a line: Interaction with recombinant dog CB1. The note with it: test concentrations up to 10 μM.
The target of assay [13] is T1, human CB2 receptor. The experiment in a line: GPCR signaling assay, recombinant human CB2. It is filed as cell-based.
For assay [14], the target named is T3, recombinant CB2 receptors (dog) (Canis lupus familiaris, UniProt E2RKA3).
T3 construct: other: GPCR signaling assays, recombinant receptor
T3 sequence (E2RKA3 1-360): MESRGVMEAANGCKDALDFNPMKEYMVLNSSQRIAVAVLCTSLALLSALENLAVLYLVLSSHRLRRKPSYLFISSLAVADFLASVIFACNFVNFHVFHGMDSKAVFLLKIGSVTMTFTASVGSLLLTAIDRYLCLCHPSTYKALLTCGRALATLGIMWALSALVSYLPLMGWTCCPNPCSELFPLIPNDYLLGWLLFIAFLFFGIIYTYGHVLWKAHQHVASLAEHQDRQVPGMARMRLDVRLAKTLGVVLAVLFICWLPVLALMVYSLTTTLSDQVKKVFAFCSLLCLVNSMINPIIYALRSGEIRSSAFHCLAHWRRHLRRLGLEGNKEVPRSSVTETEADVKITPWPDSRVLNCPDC
The experiment in a line: GPCR signaling assay, recombinant dog CB2. In kind it is cell-based. The conditions noted are these: GPCR signaling assays, recombinant receptor. On the procedure:
(§1) The binding affinity, potency, and selectivity of Compound A for recombinant CB2 receptors were determined using radioligand binding assays and GPCR signaling assays.

Assay [15] relates to Sprague Dawley rats, acetic acid-induced writhing. As to the kind of experiment: Acetic acid-induced writhing model of visceral pain. It is filed as in vivo, rat. The conditions noted are these: 3, 10, 30 mg/kg PO, acetic acid 1.5% IP; FIGS. 11 and 12. On the procedure:
Writhing is induced in male Sprague Dawley rats by administering glacial acetic acid (1.5%) intraperitoneally (IP). […] On test day, rats are placed in observation cages and administered compound according to the schedules in Tables D, F, H, and J. Treatment groups are as provided in Tables E, G, I, and K.
Studies are performed to evaluate single dose assessment (Tables D and E), maintenance of efficacy after repeated administration (Tables F and G), antagonist interactions (Tables H and I), and dose response (Tables J and K).
Writhing behavior is scored for 30 minutes in five-minute time bins.
Writhing behavior was evaluated 20 minutes later and recorded for 30 minutes (in five-minute bins).

The target in assay [16] is T4, recombinant CB2 receptors (rat) (Rattus norvegicus, UniProt Q9QZN9).
T4 sequence (Q9QZN9 1-360): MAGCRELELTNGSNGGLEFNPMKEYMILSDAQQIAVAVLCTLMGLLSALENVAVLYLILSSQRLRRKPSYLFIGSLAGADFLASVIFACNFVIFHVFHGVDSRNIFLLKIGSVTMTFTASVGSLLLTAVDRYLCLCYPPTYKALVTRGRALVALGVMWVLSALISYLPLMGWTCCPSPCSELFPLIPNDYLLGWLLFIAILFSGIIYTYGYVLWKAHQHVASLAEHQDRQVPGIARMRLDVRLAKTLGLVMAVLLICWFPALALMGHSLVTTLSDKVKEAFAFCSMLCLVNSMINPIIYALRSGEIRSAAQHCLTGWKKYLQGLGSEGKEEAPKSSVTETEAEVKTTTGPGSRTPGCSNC
The experiment in a line: GPCR signaling assay, recombinant rat CB2. The conditions noted are these: GPCR signaling assays, recombinant receptor. In kind it is cell-based. On the procedure:
as §1

The target of assay [17] is T2, hCB1. As to the kind of experiment: Radioligand binding assay, hCB1. The note with it: Table C.
Assay [18] has as its system capsaicin-induced hyperalgesia and allodynia. The conditions noted are these: topical administration, humans; cited from earlier work.

As for `CC(C)(CO)NC(=O)c1nn(-c2ccc(F)cc2F)c2c1C[C@H]1C[C@@H]21` [Compound 493, (1aR,5aR)-2-(2,4-Difluoro-phenyl)-1a,2,5,5a-tetrahydro-1H-2,3-diaza-cyclopropa[a]pentalene-4-carboxylic acid (2-hydroxy-1,1-dimethyl-ethyl)-amide], in [1], the “Time of maximum efficacy post-dosing” value was determined as 1 h. Further, the “Paw withdrawal threshold (PWT) in comparison with vehicle and gabapentin” value in assay [1] (von Frey 30, 60 and 180 minutes after dosing) was “increase in paw withdrawal threshold (PWT)”. The “Paw withdrawal threshold (PWT) in comparison with the vehicle” value in assay [2] is “increase in paw withdrawal threshold (PWT)”. For the same compound, in [3], the “Paw withdrawal threshold (PWT) in comparison with vehicle” value was “Increase in paw withdrawal threshold (PWT)”.
On to `CNC(=O)[C@@H](NC(=O)c1nn(-c2cnccn2)c2c1C[C@H]1C[C@@H]21)C(C)(C)C` [Compound 667, (1aR,5aR)-2-Pyrazin-2-yl-1a,2,5,5a-tetrahydro-1H-2,3-diaza-cyclopropa[a]pentalene-4-carboxylic acid [2,2-dimethyl-1-((S)-methylcarbamoyl)-propyl]-amide], for which the half-maximal effective concentration (EC50) was 1.53 nM in assay [4], 145 nM in assay [5], 0.3 nM in assay [6] and 195 nM in assay [7].
On to `CC(C)(C)[C@@H](CO)NC(=O)c1nn(-c2c[n+]([O-])ccn2)c2c1C[C@@H]1C[C@H]21` [Compound 699, (1aS,5aS)-2-(4-Oxy-pyrazin-2-yl)-1a,2,5,5a-tetrahydro-1H-2,3-diaza-cyclopropa[a]pentalene-4-carboxylic acid ((S)-1-hydroxymethyl-2,2-dimethyl-propyl)-amide], for which the “Response (VMR) in rats with healthy colons” value in [8] (30 mg/kg oral gavage twice daily for five days) is reported as “without changing response”. Further, in assay [8] (10 and 30 mg/kg oral gavage twice daily, rats with TNBS-induced colitis), the “Colonic hypersensitivity, dose dependence” value is recorded as “reducing colonic hypersensitivity in a dose-dependent manner”. Besides, the “Visceral pain response (VMR to colorectal distension), rats with TNBS-induced colitis” value in assay [8] (10 or 30 mg/kg oral gavage twice daily for five days, FIG. 13) was “reduces the visceral pain response”. Also, in assay [9], the “Analgesic efficacy (tactile allodynia, 50% withdrawal threshold)” value was “robust and sustained analgesic efficacy over 6 hours”. Moreover, the “Interaction with recombinant human CB1 receptors” value in [10] is given as “did not interact”. Further, in assay [11], the “Interaction with recombinant rat CB1 receptors” value was “did not interact”. In addition, the “Interaction with recombinant dog CB1 receptors” value in assay [12] is recorded as “did not interact”. In assay [13], the “Kind of activity at the CB2 receptor” value was “full agonist”. The EC50 in [14] and in assay [16] was 6 to 8 nM each time. In addition, in [15], the “Efficacy on writhing behavior” value is recorded as “efficacious”.
On to `CNC(=O)[C@@H](NC(=O)c1nn(-c2c[n+]([O-])ccn2)c2c1C[C@@H]1C[C@H]21)C(C)(C)C` [Compound 701, (1aS,5aS)-2-(4-Oxy-pyrazin-2-yl)-1a,2,5,5a-tetrahydro-1H-2,3-diaza-cyclopropa[a]pentalene-4-carboxylic acid ((S)-2,2-dimethyl-1-methylcarbamoyl-propyl)-amide], for which affinity in assay [17] was put at a Ki of 105 nM.
As to `CCCCCCC(C)(C)c1cc(O)c2c(c1)OC(C)(C)[C@@H]1CC=C(CO)C[C@@H]21` [HU-210], in assay [18], the “Capsaicin-induced hyperalgesia and allodynia” value is “attenuates capsaicin-induced hyperalgesia and allodynia”.
